Assay results: the NIST ThermoML archive (doi:10.1021/je100145f)

Test: xn = mol fraction of the nth substance listed
Details: 101 kPa, Liquid, Vibrating tube method

N#Cc1ccccc1 [benzonitrile] + CCCCCCCC
mass density [kg/m3]
Details	283.15 K	288.15 K	293.15 K	298.15 K	303.15 K	308.15 K	313.15 K	318.15 K
x1 = 0.022	714.94	710.93	706.9	702.86	698.79	694.71	690.6	686.47
x1 = 0.0576	721.95	717.92	713.87	709.81	705.72	701.62	697.49	693.34
x1 = 0.102	731.07	727.01	722.94	718.85	714.74	710.61	706.47	702.29
x1 = 0.1999	752.43	748.32	744.2	740.06	735.9	731.73	727.54	723.33
x1 = 0.2998	776.16	772.01	767.84	763.66	759.46	755.25	751.02	746.78
x1 = 0.4001	802.02	797.83	793.63	789.41	785.18	780.93	776.67	772.39
x1 = 0.4637	819.57	815.35	811.12	806.89	802.63	798.37	794.09	789.79
x1 = 0.4997	829.9	825.68	821.44	817.19	812.93	808.65	804.35	800.04
x1 = 0.5004	830.12	825.9	821.66	817.41	813.14	808.86	804.56	800.25
x1 = 0.6001	860.7	856.42	852.14	847.85	843.55	839.23	834.9	830.56
x1 = 0.7001	894.21	889.88	885.55	881.22	876.87	872.51	868.15	863.78
x1 = 0.7998	930.65	926.27	921.9	917.52	913.13	908.74	904.34	899.94
x1 = 0.9001	970.69	966.28	961.87	957.46	953.05	948.63	944.21	939.78
x1 = 0.95	991.86	987.44	983.01	978.59	974.17	969.74	965.31	960.88
x1 = 0.9801	1005.05	1000.62	996.19	991.77	987.34	982.91	978.48	974.05
x1 = 1	1013.99	1009.55	1005.12	1000.69	996.26	991.83	987.4	982.96
